Reference: patent publication US11793770B2, “7-OH-cannabidiol (7-OH-CBD) and/or 7-OH-cannabidivarin (7-OH-CBDV) for use in the treatment of epilepsy” (GW Research Limited, priority 2014, dated 2023)
Marks after values point to notes of the source that are not given here.

How the values were obtained:
PTZ-induced seizures = experiment: PTZ model of generalised (acute) seizures; type: in vivo, rat; settings: for Anti-convulsant action in the PTZ model of acute seizure: 7-OH-CBDV 200 mg/kg, 7-OH-CBD 100 mg/kg IP; for Mortality / Latency to seizure onset / Maximum observed seizure severity (median): CBD and 7-OH CBD 100 mg/kg; for Mortality: FIG. 1B; for Latency to seizure onset: FIG. 1D; for Potency compared with parent cannabinoid: metabolite vs parent (CBD, CBDV) at the same dose; for Maximum observed seizure severity (median): IP 30 min before PTZ 70 or 80 mg/kg IP, score scale 0-6, FIG. 1A
Method: Male Wistar rats (P24-29; 75-110 g) were used to assess the effects of the cannabinoids listed above on the PTZ model of generalised seizures. Animals were habituated to the test environment, cages, injection protocol and handling prior to experimentation. Animals were housed in a room at 21° C. on a 12 hour light: dark cycle (lights on 0900) in 50% humidity, with free access to food and water.
Five 6 L Perspex (RTM) tanks with lids were placed on a single bench with dividers between them. Closed-circuit television (CCTV) cameras were mounted onto the dividers to observe rat behaviour. Sony Topica CCD cameras (Bluecherry, USA) were linked via BNC cables to a low-noise PC via Brooktree digital capture cards (Bluecherry, USA). Zoneminder (http://www.zoneminder.com) software was used to monitor rats, start and end recordings and manage video files. In-house Linux (RTM) scripts were used to encode video files into a suitable format for further offline analysis
Animals were filmed for half an hour after last sign of seizure, and then returned to their cage.
Animals were observed during experimental procedures, but all analysis was performed offline on recorded video files using The Observer behavioural analysis software (Noldus, Netherlands). A seizure severity scoring system was used to determine the levels of seizure experienced by subjects (Table 1). All signs of seizure were detailed for all animals.
The latency (in seconds) from injection of PTZ to first myoclonic jerk (FMJ; score of 1), and to the animal attaining “forelimb clonus with tonic component and body twist” (score of 3.5) were recorded. […] Data are presented as the mean±S.E.M. within an experimental group.
This is given as the median value for each experimental group based on the scoring scale above.
The percentage of animals within an experimental group that died as a result of PTZ-induced seizures. A score of 6 (death) automatically denotes that the animal also experienced tonic-clonic seizures.
This is given as the mean±S.E.M. for each experimental group.
Differences in latencies and durations were assessed by one-way analysis of variance (ANOVA) with post-hoc Tukey's test. P≤0.05 was considered significant.

[1] = WO 01/95899; cited from earlier work
[2] = tested on: Maximal electroshock seizures (MES); experiment: Maximal electroshock (MES) model of seizure; type: in vivo, mouse
Method: The vehicle used in this study was 2:1:17 (ethanol:Cremophor:0.9% w/v NaCl). […] This was made to a solution at the highest concentration; then dissolved in ethanol before combination with Cremophor and 0.9% NaCl in the proportion described above. The 7-OH-CBDV was administered intraperitoneally at a volume of 10 ml/kg body weight.
Animal Species/Strain: Mouse/ICR, Microbiological grade: SPF, Inc. Sex: male, Age (at time of testing): 5-7 weeks old, Number of animals: about 5 animals per group. Temperature: 23±2° C., Humidity: 60±10%, Light conditions: 7 AM to 7 PM for the light period, 7 PM to 7 AM for the dark period. Chow and water: Free access to CRF-1 (Oriental Yeast Co, Ltd) and tap water.
One day before each experiment, mice were weighed and randomized into several groups in each test. On the morning of the experiment day, body weight was measured in order to calculate the administration volume of each animal. Vehicle, 7-OH-CBDV or CBDV was interperitoneally administered 30 minutes before electric stimuli. […]
All statistical analyses were performed using SAS Software for Windows, Release 9.1. The difference of the number (hindlimb extension or deaths) in each group was assessed using two-tailed Fisher's exact test. […]

[3] = tested on: seizures in epileptic patients; settings: cited from earlier work
[4] = tested on: seizures after pro-convulsant drugs or an electric current; settings: mice, after pro-convulsant drugs or an electric current (Consroe et al., 1982); cited from earlier work
[5] = IP 30 min before PTZ, CBDV and 7-OH CBDV 200 mg/kg, n=11
[6] = CBDV and 7-OH CBDV 200 mg/kg, n=11

| Structure (SMILES) | Anti-convulsant action in the PTZ model of acute seizure (PTZ-induced seizures) | Mortality (PTZ-induced seizures; [5]) | Latency to seizure onset (PTZ-induced seizures; [5]) | Latency to seizure onset (PTZ-induced seizures; IP 30 min before PTZ, CBDV and 7-OH CBDV 200 mg/kg, n=11, listed as 7-OH CBD) | Potency compared with parent cannabinoid (PTZ-induced seizures) | Efficacy in a model of inflammation [1] | Maximum observed seizure severity (median) (PTZ-induced seizures; [6]) | Anti-convulsant effects in the MES model ([2]; 150 and 200 mg/kg i.p.) | Patients becoming seizure free ([3]; 200 mg/day pure CBD, four adult patients (Mechoulam and Carlini, 1978)) | Control of seizures ([3]; 200 mg/day pure CBD, open label, twelve institutionalized adult patients (Ames and Cridland, 1986)) | Number of patients with marked reduction of seizures ([3]; eight adult patients with generalized epilepsy (Cunha et al., 1980)) | Epileptic patients describing an improvement in their condition ([3]; eight epileptic patients (Carlini et al., 1981)) | Prevention of seizures [4] | Incidence of tonic clonic seizures (PTZ-induced seizures; IP 30 min before PTZ, CBDV and 7-OH CBDV 200 mg/kg, n=11, FIG. 1C) | Percentage decrease in tonic clonic convulsions compared with vehicle ([2]; 200 mg/kg i.p., 30 minutes before electric stimuli, ICR mice) [% ***] |
| --- | --- | --- | --- | --- | --- | --- | --- | --- | --- | --- | --- | --- | --- | --- | --- |
| C=C(C)[C@@H]1CCC(CO)=C[C@H]1c1c(O)cc(CCCCC)cc1O [7-OH-CBD, 7-hydroxy-cannabidiol] | show anti-convulsant action | reduction in mortality | significantly reduce the latency to onset of seizures | significantly reduced the latency to seizure onset | more potent than their parent cannabinoids | found to be effective | – | – | – | – | – | – | – | – | – |
| C=C(C)[C@@H]1CCC(CO)=C[C@H]1c1c(O)cc(CCC)cc1O [7-OH-CBDV, 7-hydroxy-cannabidivarin] | show anti-convulsant action | significant effect on mortality | – | – | more potent than their parent cannabinoids | – | 3 | anti-convulsant effects | – | – | – | – | – | – | – |
| C=C(C)[C@@H]1CCC(C)=C[C@H]1c1c(O)cc(CCCCC)cc1O [CBD, Cannabidiol] | – | reduction in mortality | – | – | – | – | – | – | two of the four patients became seizure free | ineffective in controlling seizures | 4 | Seven out of the eight | able to prevent seizures | – | – |
| C=C(C)[C@@H]1CCC(C)=C[C@H]1c1c(O)cc(CCC)cc1O [CBDV, Cannabidivarin] | – | significant effect on mortality | – | – | – | – | significantly reduced seizure severity | – | – | – | – | – | – | significantly reduced | 82 |
